Source: patent US5322859A, “Antiglaucoma drug composition and method” (University of Iowa Research Foundation, priority 1993, dated 1994)

Key:
Serotonin 2 Receptor = Serotonin 2 Receptor (Homo sapiens, UniProt P28223); assay: NovaScreen receptor binding, Serotonin 2 Receptor; conditions: for inhibition at 10 µM: 10^-5 M (10 μM); for inhibition at 0.1 µM: 10^-7 M (100 nM); for inhibition at 0.001 µM: 10^-9 M (1 nM)
Method: (§1) A number of compounds were sent to NovaScreen® (5200 Freeport Centre, Baltimore, Md. 21224) to determine the compounds' receptor selectivity. […] Compounds which show inhibition of 50% or greater at an assay concentration of 10 μM to 1 nM are considered active or very potent, respectively. In the table below a number of compounds show significant results for two or more of the significant receptors.

rabbit eye = assay: IOP recovery rate assay (hypertonic sodium chloride infusion, topical drug); type: in vivo; conditions: 0.6% solution
Method: The "IOP recovery rate assay" as reported by Vareilles and Lotti (Ophthalmic Res., 13, 72-79, 1981) is used.
IOP was measured at 15, 25, 35, 45, 60, 75, 90 and 120 minutes with an applanation pneumatonometer (Digilab Model D). Fifty uL of a 0.6% solution of N,N'-dimethyl-2-phenylethylamine containing a pH 7.4 phosphate buffer was administered topically to the right eye 60 minutes before the start of the sodium chloride infusion. Control animals were given vehicle without drug.
The hypertonic sodium chloride solution causes a temporary decline in IOP which returns to normal IOP in about 90 minutes if no drug is administered. IOP gradually returns to normal at a constant rate buy more slowly if the in vivo secretion rate of aqueous humor is reduced due to the presence of drug. The return to normal IOP is measured from the positive linear slope which is a measure of the constant rate of return to normal IOP and begins at about 30-45 minutes after starting the NaCl infusion. A comparison of the slope with and without the addition of N=2, R&R'=CH3 to the rabbit eye is expressed as "% reduction".

Alpha 2 Receptor = assay: NovaScreen receptor binding, Alpha 2 Receptor
Method: as §1

eye = conditions: previously disclosed by applicants; 0.2% to about 0.6% w/v preferred; cited from earlier work
Serotonin 1 Receptor = assay: NovaScreen receptor binding, Serotonin 1 Receptor
Method: as §1

Serotonin 2 Receptor, sequence (P28223 whole entry): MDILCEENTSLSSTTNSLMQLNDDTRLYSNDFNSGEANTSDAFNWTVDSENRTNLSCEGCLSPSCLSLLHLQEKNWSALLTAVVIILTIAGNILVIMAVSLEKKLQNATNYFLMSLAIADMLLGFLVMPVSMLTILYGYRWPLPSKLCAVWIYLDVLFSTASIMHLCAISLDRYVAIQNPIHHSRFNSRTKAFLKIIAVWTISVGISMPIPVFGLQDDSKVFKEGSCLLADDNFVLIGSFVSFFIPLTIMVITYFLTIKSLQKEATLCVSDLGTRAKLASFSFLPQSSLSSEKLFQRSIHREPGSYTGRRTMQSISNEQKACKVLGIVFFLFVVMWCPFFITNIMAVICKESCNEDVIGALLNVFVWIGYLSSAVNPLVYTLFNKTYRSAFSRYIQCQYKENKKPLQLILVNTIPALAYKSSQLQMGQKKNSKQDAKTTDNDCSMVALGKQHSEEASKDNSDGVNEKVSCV

Compound | inhibition at 10 µM (Serotonin 2 Receptor) [%] | inhibition at 0.1 µM (Serotonin 2 Receptor) [%] | inhibition at 0.001 µM (Serotonin 2 Receptor) [%] | average slope of return to normal IOP (rabbit eye; 50 uL topical to right eye 60 min before NaCl infusion, n = 12 rabbit eyes, ± standard deviation, vehicle only 0.109 ± 0.0268) | % Reduction of slope vs vehicle (rabbit eye; topical, n = 12 rabbit eyes) [%] | in vivo antiglaucoma activity (rabbit eye; topical, rabbit eye) | % INHIBITION (Alpha 2 Receptor; 10^-5 M (10 μM)) [%] | % INHIBITION (Alpha 2 Receptor; 10^-7 M (100 nM)) [%] | % INHIBITION (Alpha 2 Receptor; 10^-9 M (1 nM)) [%] | tear stimulation (eye) | % INHIBITION (Serotonin 1 Receptor; 10^-5 M (10 μM)) [%] | % INHIBITION (Serotonin 1 Receptor; 10^-7 M (100 nM)) [%] | % INHIBITION (Serotonin 1 Receptor; 10^-9 M (1 nM)) [%]
CN(C)CCc1ccccc1 [n = 2, R&R' = CH3, N,N-dimethyl-2-phenylethylamine] | 46.9 | 10.7 | -2.1 | 0.066 ± 0.027 | 38.5 | potent in vivo antiglaucoma drug | 96.7 | 15.3 | 8.1 | ophthalmically effective tear stimulant | 82.3 | 70.6 | 62.3
CCN(C)Cc1ccccc1 [n = 1, R = CH3, R' = C2 H5] |  |  |  |  |  |  | 53.0 | 4.7 | 2.2 |  | 17.2 | 6.2 | 5.7
CN(CCCc1ccccc1)C1CCCCC1 [n = 3, R = methyl, R' = cyclohexyl] | 82.1 | -8 | -15.4 |  |  |  | 81.0 | 9.3 | 3.3 |  | 5.7 | -10.2 | -6.3
CCN(CCc1ccccc1)C1CCCCC1.Cl [n = 2, R = C2 H5, R' = cyclohexyl, N-cyclohexyl-N-ethyl 2-phenylethylamine hydrochloride] | 48.9 | 4.7 | -11.2 |  |  |  |  |  |  |  | 12.2 | -4.0 | 2.6
CCCCCCN(C)CCc1ccccc1 [n = 2, R = CH3, R' = n-hexyl] | 92 | 9.6 | 2.3 |  |  |  | 95.7 | 6.7 | 1.6 |  | 55.0 | 30.0 | 10.3
